Assay results taken from patent publication US10844077B2, “Thiazolyl-containing compounds for treating proliferative diseases” (Dana-Farber Cancer Institute, Inc., priority 2014, dated 2020).

Tests used:
Assay type in all cases: binding
broad panel of kinases [1] = biological target: broad panel of kinases (Homo sapiens, UniProt P07949, V804M); settings: RET(V804M); 1 μM
broad panel of kinases [2] = biological target: broad panel of kinases (Homo sapiens, UniProt Q14680); settings: MELK; 1 μM
broad panel of kinases [3] = biological target: broad panel of kinases (Homo sapiens, UniProt Q9BRS2); settings: RIOK1; 1 μM
broad panel of kinases [4] = biological target: broad panel of kinases (Homo sapiens, UniProt O95835); settings: LATS1; 1 μM
broad panel of kinases [5] = biological target: broad panel of kinases (Homo sapiens, UniProt P07947); settings: YES; 1 μM
Chain of broad panel of kinases (Homo sapiens, UniProt P07947) (P07947 2-543 limits assumed): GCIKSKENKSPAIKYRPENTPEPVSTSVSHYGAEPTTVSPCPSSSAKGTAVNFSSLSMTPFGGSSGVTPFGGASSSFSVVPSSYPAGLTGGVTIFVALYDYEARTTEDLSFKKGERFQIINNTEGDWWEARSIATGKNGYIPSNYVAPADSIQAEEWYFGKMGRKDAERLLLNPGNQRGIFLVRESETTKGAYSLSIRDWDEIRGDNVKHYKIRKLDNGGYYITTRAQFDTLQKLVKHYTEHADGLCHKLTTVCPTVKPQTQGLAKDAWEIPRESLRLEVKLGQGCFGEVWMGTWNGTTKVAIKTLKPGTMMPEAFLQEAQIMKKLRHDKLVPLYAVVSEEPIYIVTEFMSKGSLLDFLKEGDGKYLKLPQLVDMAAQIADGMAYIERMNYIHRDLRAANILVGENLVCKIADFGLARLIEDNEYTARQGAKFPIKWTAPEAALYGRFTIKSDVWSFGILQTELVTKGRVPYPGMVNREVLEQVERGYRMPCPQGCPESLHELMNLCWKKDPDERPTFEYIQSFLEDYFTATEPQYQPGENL

broad panel of kinases [6] = biological target: broad panel of kinases (Homo sapiens, UniProt Q15569); settings: TESK1; 1 μM
broad panel of kinases [7] = biological target: broad panel of kinases (Homo sapiens, UniProt P19525); settings: PRKR; 1 μM
Chain of broad panel of kinases (Homo sapiens, UniProt P19525) (P19525 2-551 limits assumed): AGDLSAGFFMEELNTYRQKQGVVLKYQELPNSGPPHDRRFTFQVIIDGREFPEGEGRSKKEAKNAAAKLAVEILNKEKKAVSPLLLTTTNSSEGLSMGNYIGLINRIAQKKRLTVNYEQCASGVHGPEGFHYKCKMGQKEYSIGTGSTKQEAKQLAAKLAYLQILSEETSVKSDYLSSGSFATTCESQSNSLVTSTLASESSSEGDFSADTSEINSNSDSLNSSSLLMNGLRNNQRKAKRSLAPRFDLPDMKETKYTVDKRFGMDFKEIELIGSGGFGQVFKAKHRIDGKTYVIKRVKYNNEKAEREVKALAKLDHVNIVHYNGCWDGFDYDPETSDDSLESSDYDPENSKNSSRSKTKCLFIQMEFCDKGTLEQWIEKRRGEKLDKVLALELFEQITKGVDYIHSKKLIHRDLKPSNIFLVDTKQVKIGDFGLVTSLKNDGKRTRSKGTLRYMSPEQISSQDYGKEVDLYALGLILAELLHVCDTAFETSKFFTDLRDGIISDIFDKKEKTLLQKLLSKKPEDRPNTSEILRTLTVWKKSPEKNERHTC

broad panel of kinases [8] = biological target: broad panel of kinases (Homo sapiens, UniProt Q96NX5); settings: CAMK1G; 1 μM
broad panel of kinases [9] = biological target: broad panel of kinases (Homo sapiens, UniProt P54764); settings: EPHA4; 1 μM
Chain of broad panel of kinases (Homo sapiens, UniProt P54764) (P54764 20-986 limits assumed): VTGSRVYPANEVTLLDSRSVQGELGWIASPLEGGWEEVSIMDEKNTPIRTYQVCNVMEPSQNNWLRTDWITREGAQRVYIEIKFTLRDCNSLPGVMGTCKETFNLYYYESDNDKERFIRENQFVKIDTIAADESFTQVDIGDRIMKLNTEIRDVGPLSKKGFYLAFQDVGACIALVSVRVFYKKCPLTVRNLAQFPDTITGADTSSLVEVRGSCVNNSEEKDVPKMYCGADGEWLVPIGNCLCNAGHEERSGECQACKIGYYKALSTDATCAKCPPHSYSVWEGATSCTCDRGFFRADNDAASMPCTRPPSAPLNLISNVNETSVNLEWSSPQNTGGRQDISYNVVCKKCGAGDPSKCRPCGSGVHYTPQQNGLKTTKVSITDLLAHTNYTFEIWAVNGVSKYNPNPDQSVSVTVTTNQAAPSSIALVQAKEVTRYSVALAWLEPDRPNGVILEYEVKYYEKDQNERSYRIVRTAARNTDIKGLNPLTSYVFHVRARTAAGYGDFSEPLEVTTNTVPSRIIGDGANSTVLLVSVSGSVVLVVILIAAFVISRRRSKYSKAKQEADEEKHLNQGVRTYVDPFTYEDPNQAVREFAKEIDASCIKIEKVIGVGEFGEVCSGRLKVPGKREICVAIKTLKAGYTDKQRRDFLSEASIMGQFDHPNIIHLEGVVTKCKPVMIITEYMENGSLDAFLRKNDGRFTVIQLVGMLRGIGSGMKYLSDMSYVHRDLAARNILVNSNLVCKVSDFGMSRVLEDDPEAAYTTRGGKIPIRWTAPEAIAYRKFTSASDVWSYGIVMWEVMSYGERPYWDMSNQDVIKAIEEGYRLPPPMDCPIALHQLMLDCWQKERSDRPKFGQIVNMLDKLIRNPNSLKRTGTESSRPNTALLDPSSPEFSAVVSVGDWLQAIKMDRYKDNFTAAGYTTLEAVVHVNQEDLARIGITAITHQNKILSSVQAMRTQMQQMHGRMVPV

broad panel of kinases [10] = biological target: broad panel of kinases (Homo sapiens, UniProt Q9Y2U5); settings: MAP3K2; 1 μM
broad panel of kinases [11] = biological target: broad panel of kinases (Homo sapiens, UniProt P16591); settings: FER; 1 μM
broad panel of kinases [12] = biological target: broad panel of kinases (Homo sapiens, UniProt P15735); settings: PHKG2; 1 μM
broad panel of kinases [13] = biological target: broad panel of kinases (Homo sapiens, UniProt Q6PHR2); settings: ULK3; 1 μM
broad panel of kinases [14] = biological target: broad panel of kinases (Homo sapiens, UniProt Q99755); settings: PIP5K1A; 1 μM
broad panel of kinases [15] = biological target: broad panel of kinases (Homo sapiens, UniProt O60674); settings: JAK2(JH1domain-catalytic); 1 μM
broad panel of kinases [16] = biological target: broad panel of kinases (Homo sapiens, UniProt Q13470); settings: TNK1; 1 μM
broad panel of kinases [17] = biological target: broad panel of kinases (Homo sapiens, UniProt P42338); settings: PIK3CB; 1 μM
broad panel of kinases [18] = biological target: broad panel of kinases (Homo sapiens, UniProt P07949, M918T); settings: RET(M918T); 1 μM
broad panel of kinases [19] = biological target: broad panel of kinases (Homo sapiens, UniProt O75460); settings: ERN1; 1 μM
broad panel of kinases [20] = biological target: broad panel of kinases (Homo sapiens, UniProt Q92918); settings: HPK1; 1 μM
broad panel of kinases [21] = biological target: broad panel of kinases (Homo sapiens, UniProt P49840); settings: GSK3A; 1 μM
Chain of broad panel of kinases (Homo sapiens, UniProt P49840) (P49840 2-483 limits assumed): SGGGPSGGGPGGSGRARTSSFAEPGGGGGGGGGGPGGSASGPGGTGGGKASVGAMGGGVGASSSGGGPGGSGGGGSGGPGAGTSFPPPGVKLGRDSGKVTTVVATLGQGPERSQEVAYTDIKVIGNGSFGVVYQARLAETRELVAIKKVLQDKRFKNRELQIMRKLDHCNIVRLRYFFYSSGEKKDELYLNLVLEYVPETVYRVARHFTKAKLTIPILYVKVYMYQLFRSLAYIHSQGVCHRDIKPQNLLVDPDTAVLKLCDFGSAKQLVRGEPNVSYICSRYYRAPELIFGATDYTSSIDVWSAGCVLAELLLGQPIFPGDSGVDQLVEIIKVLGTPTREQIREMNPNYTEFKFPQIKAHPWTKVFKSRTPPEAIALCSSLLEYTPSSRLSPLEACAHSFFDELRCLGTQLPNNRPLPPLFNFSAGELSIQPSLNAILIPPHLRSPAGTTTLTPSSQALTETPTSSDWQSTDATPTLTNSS

broad panel of kinases [22] = biological target: broad panel of kinases (Homo sapiens, UniProt P35916); settings: FLT4; 1 μM
broad panel of kinases [23] = biological target: broad panel of kinases (Homo sapiens, UniProt O15264); settings: p38-delta; 1 μM
broad panel of kinases [24] = biological target: broad panel of kinases (Homo sapiens, UniProt Q14012); settings: CAMK1; 1 μM
broad panel of kinases [25] = biological target: broad panel of kinases (Homo sapiens, UniProt O43353); settings: RIPK2; 1 μM
broad panel of kinases [26] = biological target: broad panel of kinases (Homo sapiens, UniProt P29323); settings: EPHB2; 1 μM
broad panel of kinases [27] = biological target: broad panel of kinases (Homo sapiens, UniProt Q56UN5); settings: YSK4; 1 μM
broad panel of kinases [28] = biological target: broad panel of kinases (Homo sapiens, UniProt Q9NYL2); settings: ZAK; 1 μM
Chain of broad panel of kinases (Homo sapiens, UniProt Q9NYL2) (Q9NYL2 2-800 limits assumed): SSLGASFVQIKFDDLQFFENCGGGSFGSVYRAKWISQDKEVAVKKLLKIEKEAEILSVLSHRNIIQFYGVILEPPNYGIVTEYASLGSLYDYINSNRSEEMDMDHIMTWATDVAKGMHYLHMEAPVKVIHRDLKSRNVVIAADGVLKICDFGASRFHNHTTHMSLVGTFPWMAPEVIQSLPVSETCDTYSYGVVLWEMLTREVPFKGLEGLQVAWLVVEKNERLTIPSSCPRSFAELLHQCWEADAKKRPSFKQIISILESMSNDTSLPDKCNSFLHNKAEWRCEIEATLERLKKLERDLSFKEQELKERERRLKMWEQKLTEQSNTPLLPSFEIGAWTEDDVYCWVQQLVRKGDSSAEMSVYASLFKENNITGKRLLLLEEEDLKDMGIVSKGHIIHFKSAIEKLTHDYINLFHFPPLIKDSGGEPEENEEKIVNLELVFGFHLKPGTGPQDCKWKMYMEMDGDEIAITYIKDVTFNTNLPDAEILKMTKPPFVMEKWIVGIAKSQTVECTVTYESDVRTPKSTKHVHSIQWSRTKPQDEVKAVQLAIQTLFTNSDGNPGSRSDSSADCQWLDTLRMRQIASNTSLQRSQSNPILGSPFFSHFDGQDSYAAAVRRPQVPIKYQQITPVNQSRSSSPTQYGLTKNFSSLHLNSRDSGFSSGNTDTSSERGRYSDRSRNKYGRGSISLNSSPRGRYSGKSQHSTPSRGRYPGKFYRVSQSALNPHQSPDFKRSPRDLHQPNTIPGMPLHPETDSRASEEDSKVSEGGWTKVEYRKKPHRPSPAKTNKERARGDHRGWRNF

broad panel of kinases [29] = biological target: broad panel of kinases (Plasmodium falciparum, UniProt P61075)
broad panel of kinases [30] = biological target: broad panel of kinases (Homo sapiens, UniProt P29320); settings: EPHA3; 1 μM
broad panel of kinases [31] = biological target: broad panel of kinases (Homo sapiens, UniProt Q9C098); settings: DCAMKL3; 1 μM
broad panel of kinases [32] = biological target: broad panel of kinases (Homo sapiens, UniProt P17948); settings: FLT1; 1 μM
broad panel of kinases [33] = biological target: broad panel of kinases (Homo sapiens, UniProt P43403); settings: ZAP70; 1 μM
broad panel of kinases [34] = biological target: broad panel of kinases (Homo sapiens, UniProt Q96BR1); settings: SGK3; 1 μM
broad panel of kinases [35] = biological target: broad panel of kinases (Homo sapiens, UniProt P42336, C420R); settings: PIK3CA(C420R); 1 μM
broad panel of kinases [36] = biological target: broad panel of kinases (Homo sapiens, UniProt Q02763); settings: TIE2; 1 μM
Chain of broad panel of kinases (Homo sapiens, UniProt Q02763) (Q02763 23-1124 limits assumed): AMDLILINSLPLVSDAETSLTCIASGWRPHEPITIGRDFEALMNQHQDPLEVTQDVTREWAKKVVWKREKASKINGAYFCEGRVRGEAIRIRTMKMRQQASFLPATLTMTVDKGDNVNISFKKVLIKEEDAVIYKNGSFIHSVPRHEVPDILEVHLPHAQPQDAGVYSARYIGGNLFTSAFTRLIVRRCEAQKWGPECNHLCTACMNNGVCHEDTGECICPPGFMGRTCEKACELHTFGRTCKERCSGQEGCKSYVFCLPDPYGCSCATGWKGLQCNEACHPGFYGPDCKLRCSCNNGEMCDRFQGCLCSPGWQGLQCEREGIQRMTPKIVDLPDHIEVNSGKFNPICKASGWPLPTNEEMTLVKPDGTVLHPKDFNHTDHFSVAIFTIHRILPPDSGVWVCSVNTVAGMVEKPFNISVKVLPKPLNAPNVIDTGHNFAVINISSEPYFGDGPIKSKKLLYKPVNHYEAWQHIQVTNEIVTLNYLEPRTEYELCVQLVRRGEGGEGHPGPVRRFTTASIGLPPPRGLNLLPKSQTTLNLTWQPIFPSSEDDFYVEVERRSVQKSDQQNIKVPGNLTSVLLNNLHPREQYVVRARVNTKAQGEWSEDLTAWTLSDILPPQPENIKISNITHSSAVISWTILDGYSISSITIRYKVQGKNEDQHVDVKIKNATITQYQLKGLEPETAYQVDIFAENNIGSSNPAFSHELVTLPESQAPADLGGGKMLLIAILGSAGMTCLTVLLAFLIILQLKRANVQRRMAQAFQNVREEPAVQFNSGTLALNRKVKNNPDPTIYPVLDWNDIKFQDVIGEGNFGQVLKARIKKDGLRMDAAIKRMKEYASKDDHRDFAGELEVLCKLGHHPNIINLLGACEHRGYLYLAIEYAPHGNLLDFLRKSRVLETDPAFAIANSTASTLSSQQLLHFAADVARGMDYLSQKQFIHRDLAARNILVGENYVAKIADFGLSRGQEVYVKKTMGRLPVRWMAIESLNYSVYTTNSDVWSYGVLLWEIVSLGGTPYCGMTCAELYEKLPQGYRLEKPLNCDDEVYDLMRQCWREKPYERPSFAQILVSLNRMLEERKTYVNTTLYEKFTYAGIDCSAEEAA

broad panel of kinases [37] = biological target: broad panel of kinases (Homo sapiens, UniProt P54762); settings: EPHB1; 1 μM

| SMILES | percent of control binding remaining (lower = stronger binding) (broad panel of kinases [1]) [%] | percent of control binding remaining (lower = stronger binding) (broad panel of kinases [2]) [%] | percent of control binding remaining (lower = stronger binding) (broad panel of kinases [3]) [%] | percent of control binding remaining (lower = stronger binding) (broad panel of kinases [4]) [%] | percent of control binding remaining (lower = stronger binding) (broad panel of kinases [5]) [%] | percent of control binding remaining (lower = stronger binding) (broad panel of kinases [6]) [%] | percent of control binding remaining (lower = stronger binding) (broad panel of kinases [7]) [%] | percent of control binding remaining (lower = stronger binding) (broad panel of kinases [8]) [%] | percent of control binding remaining (lower = stronger binding) (broad panel of kinases [9]) [%] | percent of control binding remaining (lower = stronger binding) (broad panel of kinases [10]) [%] | percent of control binding remaining (lower = stronger binding) (broad panel of kinases [11]) [%] | percent of control binding remaining (lower = stronger binding) (broad panel of kinases [12]) [%] | percent of control binding remaining (lower = stronger binding) (broad panel of kinases [13]) [%] | percent of control binding remaining (lower = stronger binding) (broad panel of kinases [14]) [%] | percent of control binding remaining (lower = stronger binding) (broad panel of kinases [15]) [%] | percent of control binding remaining (lower = stronger binding) (broad panel of kinases [16]) [%] | percent of control binding remaining (lower = stronger binding) (broad panel of kinases [17]) [%] | percent of control binding remaining (lower = stronger binding) (broad panel of kinases [18]) [%] | percent of control binding remaining (lower = stronger binding) (broad panel of kinases [19]) [%] | percent of control binding remaining (lower = stronger binding) (broad panel of kinases [20]) [%] | also measured |
| --- | --- | --- | --- | --- | --- | --- | --- | --- | --- | --- | --- | --- | --- | --- | --- | --- | --- | --- | --- | --- | --- |
| C=CC(=O)N1CC[C@H](Nc2nc(CN3CCOCC3)cc(Nc3ncc(C(=O)Nc4c(C)cccc4C)s3)n2)C1 [Example I-2] | 100 | 84 | 90 | 100 | 0 | 60 | 89 | 89 | 0 | 96 | 100 | 96 | 97 | 92 | 65 | 100 | 100 | 92 | 83 | 51 | percent of control binding remaining (lower = stronger binding) (broad panel of kinases [21]): 100%; percent of control binding remaining (lower = stronger binding) (broad panel of kinases [22]): 95%; percent of control binding remaining (lower = stronger binding) (broad panel of kinases [23]): 100%; percent of control binding remaining (lower = stronger binding) (broad panel of kinases [24]): 91%; percent of control binding remaining (lower = stronger binding) (broad panel of kinases [25]): 14%; percent of control binding remaining (lower = stronger binding) (broad panel of kinases [26]): 0%; percent of control binding remaining (lower = stronger binding) (broad panel of kinases [27]): 100%; percent of control binding remaining (lower = stronger binding) (broad panel of kinases [28]): 87%; % change compared to control (broad panel of kinases [29]): 100%; percent of control binding remaining (lower = stronger binding) (broad panel of kinases [30]): 47%; percent of control binding remaining (lower = stronger binding) (broad panel of kinases [31]): 97%; percent of control binding remaining (lower = stronger binding) (broad panel of kinases [32]): 93%; percent of control binding remaining (lower = stronger binding) (broad panel of kinases [33]): 99%; percent of control binding remaining (lower = stronger binding) (broad panel of kinases [34]): 100%; percent of control binding remaining (lower = stronger binding) (broad panel of kinases [35]): 100%; percent of control binding remaining (lower = stronger binding) (broad panel of kinases [36]): 100%; percent of control binding remaining (lower = stronger binding) (broad panel of kinases [37]): 0.35% |
| C=CC(=O)N1CC[C@H](Nc2nccc(Nc3ncc(C(=O)Nc4c(C)cccc4C)s3)n2)C1 [Example I-3] | 100 | 82 | 82 | 93 | 0 | 88 | 69 | 97 | 0 | 98 | 99 | 94 | 98 | 91 | 82 | 100 | 100 | 99 | 76 | 61 | percent of control binding remaining (lower = stronger binding) (broad panel of kinases [21]): 97%; percent of control binding remaining (lower = stronger binding) (broad panel of kinases [22]): 100%; percent of control binding remaining (lower = stronger binding) (broad panel of kinases [23]): 100%; percent of control binding remaining (lower = stronger binding) (broad panel of kinases [24]): 63%; percent of control binding remaining (lower = stronger binding) (broad panel of kinases [25]): 31%; percent of control binding remaining (lower = stronger binding) (broad panel of kinases [26]): 0%; percent of control binding remaining (lower = stronger binding) (broad panel of kinases [27]): 100%; percent of control binding remaining (lower = stronger binding) (broad panel of kinases [28]): 94%; % change compared to control (broad panel of kinases [29]): 100%; percent of control binding remaining (lower = stronger binding) (broad panel of kinases [30]): 49%; percent of control binding remaining (lower = stronger binding) (broad panel of kinases [31]): 92%; percent of control binding remaining (lower = stronger binding) (broad panel of kinases [32]): 86%; percent of control binding remaining (lower = stronger binding) (broad panel of kinases [33]): 100%; percent of control binding remaining (lower = stronger binding) (broad panel of kinases [34]): 100%; percent of control binding remaining (lower = stronger binding) (broad panel of kinases [35]): 99%; % change compared to control (broad panel of kinases [36]): 100%; percent of control binding remaining (lower = stronger binding) (broad panel of kinases [37]): 0.2% |
